Each compound was assayed against T1, hCCR4 (Chem5-hCCR4 cells) (Homo sapiens, UniProt P51679) (assay: Calcium flux assay (CCL22-stimulated, FLIPR Calcium 6 dye)). Settings: Table 3, CCL22 1.5 nM, read-out: Potency (IC50).
T1 sequence (P51679 1-360): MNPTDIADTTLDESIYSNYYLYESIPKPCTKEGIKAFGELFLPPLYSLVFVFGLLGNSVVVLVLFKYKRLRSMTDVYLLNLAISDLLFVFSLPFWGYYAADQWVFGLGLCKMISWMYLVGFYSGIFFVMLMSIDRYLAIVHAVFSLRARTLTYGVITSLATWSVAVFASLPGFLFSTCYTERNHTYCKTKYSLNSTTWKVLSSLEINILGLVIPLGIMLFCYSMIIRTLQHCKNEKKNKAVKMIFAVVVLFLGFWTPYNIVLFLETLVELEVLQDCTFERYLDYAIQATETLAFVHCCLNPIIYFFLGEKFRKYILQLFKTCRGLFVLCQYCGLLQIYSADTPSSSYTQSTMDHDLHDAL
Type: cell-based
Description: Calcium Flux Assay. Compounds were evaluated in a calcium flux assay substantially performed as follows. Chem5-hCCR4 cells (EMD Millipore, Hayward, CA; HTS009C) were cultured under standard conditions and frozen in aliquots of 10×10^6 cells/mL. The day prior to compound testing, a vial was rapidly thawed and pipetted into 20 mL media (DMEM+10% FBS+1% Pen-Strep+1% L-glutamine). Cells were harvested by centrifugation and re-suspended in fresh culture medium. 25 μL of cell suspension was seeded into 384-well plates (Corning, Tewksbury, MA; CellBind with black wall/clear bottom). The plates were centrifuged at 300 g for 10 seconds and incubated overnight at 37° C. and 5% CO2. The day of compound testing, media was removed from the plates and 25 μL serum free media was added to each well. Plates were returned to the incubator for 2 h. 25 μL assay buffer (Hank's balanced salt solution+20 mM HEPES pH 7.4) containing FLIPR Calcium 6 dye (Molecular Devices, Sunnyvale, CA; #R8191) and probenecid (2.5 mM) was added to each well and incubated at 37° C. and 5% CO2 for 2 h. Compounds in DMSO were added to the plates using an HP D300e digital dispenser, and all wells were normalized to contain 0.25 μL (0.5%) DMSO. Plates were incubated for 1 hour at 37° C. and 5% CO2. CCL22 (Peprotech; Rockyhill, NJ) was diluted in assay buffer containing 0.1% BSA to 7.5 nM (corresponding to 5×EC80 of 1.5 nM).
Assay plates and working solution of CCL22 were transferred to the FlexStation plate reader (Molecular Devices) at 37° C. for 5 min of equilibration. Fluorescence recordings at 485 excitation/525 emission were performed at 2.5 second intervals. At t=16 seconds, 12.5 μL of CCL22 solution was added to each well and reads continued for 30 seconds at 2.5 second intervals. The minimum fluorescence (Fmin) was calculated by averaging the reads prior to ligand addition and the change in fluorescence (ΔF) was calculated by subtracting the Fmin from the average of the reads following ligand addition. The response ΔF/Fmin was plotted as a function of the compound concentration and the IC50 values were determined by non-linear regression analysis using a 4-parameter fit in either PRISM software (GraphPad; La Jolla, CA) or Dotmatics Browser.

Compound | IC50 [nM]
CCOC(=O)c1cnc(N2CC([C@H]3CCCN(CCO)C3)C2)nc1N[C@H](C)c1ccc(Cl)cc1Cl [Example 32, ethyl 4-(((R)-1-(2,4-dichlorophenyl)ethyl)amino)-2-(3-((R)-1-(2-hydroxyethyl)piperidin-3-yl)azetidin-1-yl)pyrimidine-5-carboxylate] | < 100
C[C@@H](Nc1nc(N2CC([C@H]3CCCN(CCO)C3)C2)ncc1C(=O)O)c1ccc(Cl)cc1Cl [Example 33, 4-(((R)-1-(2,4-dichlorophenyl)ethyl)amino)-2-(3-((R)-1-(2-hydroxyethyl)piperidin-3-yl)azetidin-1-yl)pyrimidine-5-carboxylic acid] | > 500
C[C@@H](Nc1nc(N2CC(C3CCCN(CCN4CCCC4=O)C3C(=O)O)C2)ncc1Cl)c1ccc(Cl)cc1Cl (stereo partly drawn) [Example 34, 3-(1-(5-chloro-4-(((R)-1-(2,4-dichlorophenyl)ethyl)amino)pyrimidin-2-yl)azetidin-3-yl)-1-(2-(2-oxopyrrolidin-1-yl)ethyl)piperidine-2-carboxylic acid] | 100 to 500
C[C@@H](Nc1nc(N2CC([C@H]3CCCN([C@H]4C[C@](C)(C(=O)O)C4)C3)C2)ncc1C(C)(C)O)c1ccc(Cl)cc1Cl [Example 35, (1R,3r)-3-((R)-3-(1-(4-(((R)-1-(2,4-dichlorophenyl)ethyl)amino)-5-(2-hydroxypropan-2-yl)pyrimidin-2-yl)azetidin-3-yl)piperidin-1-yl)-1-methylcyclobutane-1-carboxylic acid] | < 100
Cc1cnc(N2CC([C@H]3CCCN([C@H]4C[C@](C)(C(=O)O)C4)C3)C2)nc1N[C@H](C)c1ccc(Cl)cc1Cl [Example 36, (1R,3r)-3-((R)-3-(1-(4-(((R)-1-(2,4-dichlorophenyl)ethyl)amino)-5-methylpyrimidin-2-yl)azetidin-3-yl)piperidin-1-yl)-1-methylcyclobutane-1-carboxylic acid] | 100 to 500
C[C@@H](Nc1nc(N2CC([C@H]3CCCN([C@H]4C[C@](C)(C(=O)O)C4)C3)C2)nc(C(F)(F)F)c1Cl)c1ccc(Cl)cc1Cl [Example 37, (1R,3r)-3-((R)-3-(1-(5-chloro-4-(((R)-1-(2,4-dichlorophenyl)ethyl)amino)-6-(trifluoromethyl)pyrimidin-2-yl)azetidin-3-yl)piperidin-1-yl)-1-methylcyclobutane-1-carboxylic acid] | < 100
Cc1nc(N2CC([C@H]3CCCN([C@H]4C[C@](C)(C(=O)O)C4)C3)C2)nc(N[C@H](C)c2ccc(Cl)cc2Cl)c1Cl [Example 38, (1R,3r)-3-((R)-3-(1-(5-chloro-4-(((R)-1-(2,4-dichlorophenyl)ethyl)amino)-6-methylpyrimidin-2-yl)azetidin-3-yl)piperidin-1-yl)-1-methylcyclobutane-1-carboxylic acid] | < 100
C[C@@H](Nc1nc(N2CC([C@H]3CCCN([C@H]4C[C@](C)(C(=O)O)C4)C3)C2)ncc1C(F)(F)F)c1ccc(Cl)cc1Cl [Example 39, (1R,3r)-3-((R)-3-(1-(4-(((R)-1-(2,4-dichlorophenyl)ethyl)amino)-5-(trifluoromethyl)pyrimidin-2-yl)azetidin-3-yl)piperidin-1-yl)-1-methylcyclobutane-1-carboxylic acid] | < 100
C[C@@H](Nc1nc(N2CC([C@H]3CCCN([C@H]4C[C@@](C)(C(=O)O)C4)C3)C2)ncc1Cl)c1ccc(Cl)cc1Cl [Example 40, (1S,3s)-3-((R)-3-(1-(5-chloro-4-(((R)-1-(2,4-dichlorophenyl)ethyl)amino)pyrimidin-2-yl)azetidin-3-yl)piperidin-1-yl)-1-methylcyclobutane-1-carboxylic acid] | < 100
C[C@@H](Nc1nc(N2CC([C@H]3CCCN([C@H]4C[C@](C)(C(=O)O)C4)C3)C2)ncc1C1CC1)c1ccc(Cl)cc1Cl [Example 41, (1R,3r)-3-((R)-3-(1-(5-cyclopropyl-4-(((R)-1-(2,4-dichlorophenyl)ethyl)amino)pyrimidin-2-yl)azetidin-3-yl)piperidin-1-yl)-1-methylcyclobutane-1-carboxylic acid] | < 100

From patent US12098139B2, “Chemokine receptor modulators and uses thereof” (RAPT Therapeutics, Inc., priority 2018, dated 2024)
